In ChEMBL document CHEMBL3638977, “Heteroaryl sodium channel inhibitors” (2015) one finds IC50 data, which are given here for 24 compounds.

The assay deals with Sodium channel protein type 9 subunit alpha (Homo sapiens, UniProt Q15858). The assay can be described thus: In Vitro Assay: 293 cells stably transfected with either Nav 1.7 or with Nav 1.5 were recorded in population patch-clamp mode with the IonWorks® Quattro automated electrophysiology system in accordance with the manufacturer's specifications (Molecular Devices, LLC, Sunnyvale, Calif.). Sodium channel currents were measured in response to a train of depolarizations that induced successively greater inactivation.Cells were held at −110 mV for three seconds (Nav 1.7) or half a second (Nav 1.5) from a holding voltage of −15 mV, then put through a series of 26 pulses of 150 msec duration to −20 mV at a frequency of 5 Hz. Cells were then left unclamped for a period of 3 to 8 minutes while a single concentration of test compound was added. Cells were then reclamped and put through the same voltage protocol. Current at the end of the 26th pulse to −20 mV was subtracted from the peak current evoked by the 26th pulse to −20 mV to correct for leak current. The assay is classed as cell-based. A general note: The patch-clamp technique gives a direct electrical read-out from membranes.
Chain of Sodium channel protein type 9 subunit alpha (Q15858 whole entry): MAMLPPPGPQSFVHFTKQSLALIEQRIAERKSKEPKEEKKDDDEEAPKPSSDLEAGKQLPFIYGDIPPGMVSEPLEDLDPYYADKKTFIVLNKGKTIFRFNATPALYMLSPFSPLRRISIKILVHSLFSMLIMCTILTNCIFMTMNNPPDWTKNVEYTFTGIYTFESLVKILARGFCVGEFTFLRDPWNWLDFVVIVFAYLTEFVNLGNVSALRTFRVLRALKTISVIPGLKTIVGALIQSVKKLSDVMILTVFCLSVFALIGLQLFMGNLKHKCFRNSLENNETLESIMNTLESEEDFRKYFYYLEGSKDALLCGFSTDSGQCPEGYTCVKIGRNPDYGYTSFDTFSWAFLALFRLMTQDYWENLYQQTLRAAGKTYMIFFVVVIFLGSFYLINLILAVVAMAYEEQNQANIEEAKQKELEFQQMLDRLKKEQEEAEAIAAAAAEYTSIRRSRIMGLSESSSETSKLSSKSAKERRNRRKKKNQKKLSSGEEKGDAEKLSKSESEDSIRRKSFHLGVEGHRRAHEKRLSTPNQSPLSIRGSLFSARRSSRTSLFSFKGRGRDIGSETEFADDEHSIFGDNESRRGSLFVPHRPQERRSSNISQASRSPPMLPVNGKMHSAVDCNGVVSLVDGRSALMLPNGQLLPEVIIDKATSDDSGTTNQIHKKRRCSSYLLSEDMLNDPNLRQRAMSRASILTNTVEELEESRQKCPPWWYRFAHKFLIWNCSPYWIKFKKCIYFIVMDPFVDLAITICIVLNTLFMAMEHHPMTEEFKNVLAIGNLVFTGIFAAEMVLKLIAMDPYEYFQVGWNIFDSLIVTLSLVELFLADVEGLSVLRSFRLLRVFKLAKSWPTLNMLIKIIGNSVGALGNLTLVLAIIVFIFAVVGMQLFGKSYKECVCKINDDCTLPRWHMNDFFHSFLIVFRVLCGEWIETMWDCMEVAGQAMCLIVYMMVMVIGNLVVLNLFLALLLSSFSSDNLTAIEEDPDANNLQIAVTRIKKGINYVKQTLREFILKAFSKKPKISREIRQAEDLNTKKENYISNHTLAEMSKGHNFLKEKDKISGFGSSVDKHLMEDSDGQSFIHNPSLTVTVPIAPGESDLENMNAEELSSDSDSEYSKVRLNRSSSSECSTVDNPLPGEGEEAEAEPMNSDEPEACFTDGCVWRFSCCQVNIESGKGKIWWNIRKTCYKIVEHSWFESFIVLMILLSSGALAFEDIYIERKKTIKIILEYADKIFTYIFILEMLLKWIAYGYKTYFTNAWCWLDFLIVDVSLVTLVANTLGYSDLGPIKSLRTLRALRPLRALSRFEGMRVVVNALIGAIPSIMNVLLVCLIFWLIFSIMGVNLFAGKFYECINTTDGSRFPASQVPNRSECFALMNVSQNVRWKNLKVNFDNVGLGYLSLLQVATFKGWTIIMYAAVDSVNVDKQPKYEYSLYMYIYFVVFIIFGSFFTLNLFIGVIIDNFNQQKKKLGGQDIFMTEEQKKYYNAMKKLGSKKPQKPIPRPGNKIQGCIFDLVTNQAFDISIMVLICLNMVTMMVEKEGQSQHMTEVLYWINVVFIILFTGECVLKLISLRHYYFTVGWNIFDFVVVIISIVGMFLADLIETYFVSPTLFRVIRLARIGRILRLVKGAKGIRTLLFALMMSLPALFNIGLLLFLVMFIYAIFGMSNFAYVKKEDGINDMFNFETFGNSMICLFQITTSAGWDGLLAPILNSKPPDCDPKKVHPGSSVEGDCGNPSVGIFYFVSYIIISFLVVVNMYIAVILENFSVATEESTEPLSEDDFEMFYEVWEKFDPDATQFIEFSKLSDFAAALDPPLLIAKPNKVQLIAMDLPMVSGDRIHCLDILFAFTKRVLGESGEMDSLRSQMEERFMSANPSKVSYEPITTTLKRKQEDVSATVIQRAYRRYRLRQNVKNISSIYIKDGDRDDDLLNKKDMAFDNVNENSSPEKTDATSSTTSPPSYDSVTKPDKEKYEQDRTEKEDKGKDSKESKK

`Cn1cc(-c2ccccc2C(F)(F)F)c2ccc(S(=O)(=O)Nc3ncns3)cc21` returned a 50% inhibitory concentration (IC50) of 6 µM. With `Cc1noc(C)c1-c1cn(C)c2cc(S(=O)(=O)Nc3ncns3)ccc12`, the half-inhibitory concentration (IC50) was 2.62 µM. This IC50 is about 2.3-fold lower than that of the compound before. With `Cn1cc(-c2ccc(C(F)(F)F)c(Cl)c2)c2ccc(S(=O)(=O)Nc3ncns3)cc21`, half-maximal inhibition (IC50) was put at 3.19 µM. As for `Cn1cc(-c2cccc(C#N)c2)c2ccc(S(=O)(=O)Nc3ncns3)cc21`, the IC50 amounted to 2 µM.

Take `Cn1cc(-c2cccc(C(F)(F)F)c2)c2ccc(S(=O)(=O)Nc3ncns3)cc21`: the IC50 was 3.81 µM. As for `COc1cc(OC)cc(-c2cn(C)c3cc(S(=O)(=O)Nc4ncns4)ccc23)c1`, half-maximal inhibition (IC50) was put at 5.96 µM. As for `Cn1cc(-c2ccc(C#N)c(F)c2)c2ccc(S(=O)(=O)Nc3ncns3)cc21`, the figure is 3.06 µM; as for `COc1ccc(-c2cn(C)c3cc(S(=O)(=O)Nc4ncns4)ccc23)c(Cl)c1`, 2.31 µM; as for `COc1ccc(-c2cn(C)c3cc(S(=O)(=O)Nc4ncns4)ccc23)cc1C(F)(F)F`, 4.48 µM. The result for `Cn1cc(-c2cccc3ncccc23)c2ccc(S(=O)(=O)Nc3ncns3)cc21` reads 0.663 µM; that for `COc1cc(F)ccc1-c1cn(C)c2cc(S(=O)(=O)Nc3ncns3)ccc12`, 0.338 µM. As for `Cn1cc(-c2ccc(OC(F)(F)F)cc2)c2ccc(S(=O)(=O)Nc3ncns3)cc21`, the figure is 4.67 µM.

In the case of `CN(C)c1cccc(-c2cn(C)c3cc(S(=O)(=O)Nc4ncns4)ccc23)c1`, 4.2 µM corresponded to half-maximal inhibition (IC50).

In the case of `COc1ccc(-c2cn(C)c3cc(S(=O)(=O)Nc4ncns4)ccc23)c(OC)c1`, inhibition was half-maximal at 0.904 µM (IC50).

Regarding `Cn1nccc1-c1cn(C)c2cc(S(=O)(=O)Nc3ncns3)ccc12`, half-maximal inhibition (IC50) required 7.14 µM. The result for `Cc1cnc(N)c(-c2cn(C)c3cc(S(=O)(=O)Nc4ncns4)ccc23)c1` reads 5.95 µM. The result for `Cc1cc(C#N)ccc1-c1cn(C)c2cc(S(=O)(=O)Nc3ncns3)ccc12` reads 2.35 µM; that for `Cn1cc(-c2cccc(OC(F)(F)F)c2)c2ccc(S(=O)(=O)Nc3ncns3)cc21`, 0.87 µM; that for `Cn1cc(-c2cccc3ccccc23)c2ccc(S(=O)(=O)Nc3ncns3)cc21`, 0.306 µM. As for `Cn1cc(-c2ccc(F)c(C#N)c2)c2ccc(S(=O)(=O)Nc3ncns3)cc21`, the figure is 1.28 µM; as for `Cn1cc(-c2ccc(Br)cc2C(F)(F)F)c2ccc(S(=O)(=O)Nc3ncns3)cc21`, 3.53 µM. Turning to `Cn1cc(-c2cccc(S(C)(=O)=O)c2)c2ccc(S(=O)(=O)Nc3ncns3)cc21`, the IC50 amounted to 0.528 µM.

Consider `COc1ccc(-c2cn(C)c3cc(S(=O)(=O)Nc4ncns4)ccc23)c2ccccc12`, for which the IC50 worked out at 2.64 µM. The result for `Cn1cc(-c2ccccc2)c2ccc(S(=O)(=O)Nc3ncns3)cc21` reads 1.55 µM.

By IC50 is commonly meant the concentration needed to halve the response being measured. A low value points to greater potency.
